# Reference: patent publication US7252835B2, “Agent for preventing and/or treating sinusitis” (Ono Pharmaceutical Co., Ltd., priority 1998, dated 2007)
# Like-named read-outs stand apart in the source and are kept apart here.
# What was measured:
# [1] = system: Normal human paranasal sinus mucosa; assay: Inhibitory effect on the reduction of ciliary movement in paranasal sinus mucosa induced by LTs; format: cell-based; details: pranlukast hydrate 1 μM, FIG. 1
# Source text: Inhibitory Effect of Pranlukast Hydrate on the Reduction of Ciliary Movement in Paranasal Sinus Mucosa Induced by LTs
# 1) Culturing of Paranasal Sinus Mucosa
# Normal human paranasal sinus mucosa obtained at the time of surgical operation of facial trauma or the like was used on the agreement of the patient. The collected paranasal sinus mucosa was thoroughly washed with a culture medium RPMI 1640 (Gibco Life Technologies), cut into 4 mm×4 mm species and then subjected to tissue culture in a culturing chamber of 35 mm×10 mm using RPMI 1640 containing 10% FCS (fetal calf serum). In order to remove mucus and cellular debris, the culture medium was exchanged every other day.
# 2) Preparation of Test Solutions […]
# When a test solution was added to the mucosal tissue, culture medium in the chamber was removed and mucosal tissue was washed with RPMI 1640 and then the test solution (1 ml) was injected. As a control, the ciliary activity was measured in case of injecting only RPMI 1640 into the chamber. By defining the ciliary activity measured just before injection of each test solution (0 minute) as the reference value (100), the ciliary activity measured after injection of each test solution was expressed as percentage (%) of the reference value. […]
# [2] = system: intractable sinusitis patients; assay: Effect of pranlukast hydrate on intractable sinusitis (clinical, oral administration); format: in vivo, human; details: 450 mg/day oral
# Procedure: Effect of Pranlukast Hydrate on Intractable Sinusitis
# Pranlukast hydrate was orally administered to intractable sinusitis patients (34 persons, average age 54.4 years) at a daily dose of 450 mg (112.5 mg/capsule, 2 capsules per 1 time, twice a day (after every breakfast and supper), every day administration). On the 2 weeks, 4 weeks, 6 weeks and 8 weeks after the administration, 1) improving degree of the nasal mucosa swelling, 2) improving degree of the properties of nasal flow, 3) improving degree of the amount of nasal flow, 4) improving degree of the postnasal discharge, 5) improving degree of the nasal obstruction, 6) improving degree of the nasal flow (frequency of blowing nose) and 7) improving degree of the X-ray shadow of each patient were judged (however, parameters in respective weeks are not constant).
# rats = details: both, rat, in vivo
# Procedure: (§1) It was confirmed that the compound of the formula (I) or a salt and/or hydrate thereof has sufficiently low toxicity and is sufficiently safe for using it as a medicament. For example, as the acute toxicity of pranlukast hydrate, its minimum lethal dose was 2,000 mg/kg or more (oral or subcutaneous administration), or 30 mg/kg or more (intravenous injection) in mice and rats (both males and females).
# mice = details: both, mouse, in vivo
# Procedure: as §1
smiles,measurement,setting,value
"O=C(Nc1cccc2c(=O)cc(-c3nnn[nH]3)oc12)c1ccc(OCCCCc2ccccc2)cc1 [pranlukast hydrate, 4-oxo-8-[4-(4-phenylbutoxy)benzoylamino]-2-(tetrazol-5-yl)4H-1-benzopyran·½ hydrate]",inhibition of reduction of paranasal sinus mucosa ciliary activity induced by LTC4,"[1]; LTC4 0.1 μM, ciliary activity after 6 hours",has the activity to inhibit reduction of paranasal sinus mucosa ciliary activity
same,inhibition of reduction of paranasal sinus mucosa ciliary activity induced by LTD4,"[1]; LTD4 0.1 μM, ciliary activity after 4 hours",has the activity to inhibit reduction of paranasal sinus mucosa ciliary activity
same,"Effective ratio, improving degree of the amount of nasal flow",[2]; on the 2nd week,52%
same,"Effective ratio, improving degree of the nasal flow (frequency of blowing nose)",[2]; on the 2nd week,34%
same,"Effective ratio, improving degree of the nasal mucosa swelling",[2]; on the 2nd week,32%
same,"Effective ratio, improving degree of the nasal obstruction",[2]; on the 2nd week,19%
same,"Effective ratio, improving degree of the postnasal discharge",[2]; on the 2nd week,39%
same,"Effective ratio, improving degree of the properties of nasal flow",[2]; on the 2nd week,33%
same,"Effective ratio, improving degree of the amount of nasal flow",[2]; on the 4th week,55%
same,"Effective ratio, improving degree of the nasal flow (frequency of blowing nose)",[2]; on the 4th week,52%
same,"Effective ratio, improving degree of the nasal mucosa swelling",[2]; on the 4th week,29%
same,"Effective ratio, improving degree of the nasal obstruction",[2]; on the 4th week,21%
same,"Effective ratio, improving degree of the postnasal discharge",[2]; on the 4th week,38%
same,"Effective ratio, improving degree of the properties of nasal flow",[2]; on the 4th week,48%
same,"Effective ratio, improving degree of the amount of nasal flow",[2]; on the 6th week,68%
same,"Effective ratio, improving degree of the nasal flow (frequency of blowing nose)",[2]; on the 6th week,65%
same,"Effective ratio, improving degree of the nasal mucosa swelling",[2]; on the 6th week,43%
same,"Effective ratio, improving degree of the nasal obstruction",[2]; on the 6th week,35%
same,"Effective ratio, improving degree of the postnasal discharge",[2]; on the 6th week,39%
same,"Effective ratio, improving degree of the properties of nasal flow",[2]; on the 6th week,52%
same,"Effective ratio, improving degree of the X-ray shadow",[2]; on the 8th week,83%
same,"Effective ratio, improving degree of the amount of nasal flow",[2]; on the 8th week,65%
same,"Effective ratio, improving degree of the nasal flow (frequency of blowing nose)",[2]; on the 8th week,60%
same,"Effective ratio, improving degree of the nasal mucosa swelling",[2]; on the 8th week,40%
same,"Effective ratio, improving degree of the nasal obstruction",[2]; on the 8th week,29%
same,"Effective ratio, improving degree of the postnasal discharge",[2]; on the 8th week,62%
same,"Effective ratio, improving degree of the properties of nasal flow",[2]; on the 8th week,53%
same,overall clinical effect on subjective symptoms and objective findings of intractable sinusitis,[2]; summary of Tables 1 to 7,has clinical effects on sinusitis
same,minimum lethal dose,rats; iv,≥ 30 mg/kg
same,minimum lethal dose,rats; po,"≥ 2,000 mg/kg"
same,minimum lethal dose,rats; sc,"≥ 2,000 mg/kg"
same,minimum lethal dose,mice; iv,≥ 30 mg/kg
same,minimum lethal dose,mice; po,"≥ 2,000 mg/kg"
same,minimum lethal dose,mice; sc,"≥ 2,000 mg/kg"
